Measurements reported in US8716030B2, “Means for the inhibition of anti-β1-adrenergic receptor antibodies” (Julius-Maximillians-Universitat Wurzburg, A Germany …, priority 2005, dated 2014).
Entries after “also recorded” stand apart in the source; their conditions may differ. Read-outs that look alike come from different tables or passages of the source.

Experiments:
[1] = test system: rats immunized against the second β1-receptor loop (β1-ECII); assay: Prevention of immune-cardiomyopathy in the human analogue rat model
[2] = test system: immunized anti-β1-positive cardiomyopathic rats; assay: Treatment of immune-cardiomyopathy in the human analogue rat model (therapy study); format: in vivo, Lewis CrlBR rats; conditions: therapy every 4 weeks after 8 months of immunization; FIGS. 8a and 8b
From the text: Lewis CrlBR rats were used as animals. […] Therapy was started after 8 months of regular (1× monthly) immunization. Monthly immunization was continued under therapy.
FIG. 8b is a diagram comparing the titer course of specific anti-ECII antibodies dependent on the different peptide variants used in the therapy arm of the study, whereby 25AA means the cyclic peptide Ic, 18AA means the shorter 18 amino-acid variant, and 16AA the shorter 16 amino-acid variant of the peptide. “Beta1 untreated” means immunized anti-1-positive cardiomyopathic not treated animals, “Beta1/pept. […] ECII-25AA, ECII-18AA, ECII-16AA” means immunized anti-1-positive cardiomyopathic animals treated with the 25AA-, 18AA-, or 16AA-peptide, respectively.
[…]. In general, the number of amino acids and thus the length of the primary structure appears to be crucial for the biological effects of the peptides of the present invention. A peptide-length equal to or above 26 amino acids (primary structure) is thought to be capable of stimulating directly (that is, without the use of carrier proteins) immunocompetent T-cells and thus provoke a paradoxal increase in anti-β1-receptor antibody production through T-cell mediated B-cell stimulation. Therefore, in the frame of the therapy study a limited number of pilot animals was treated with shorter peptide-variants of the 25 amino-acid peptide Ic, i.e. variants comprising either 18 or 16 amino-acids of the cyclic peptide. The used constructs were: ECII-18AA, cyclo([…] (SEQ ID NO:1); and ECII-16AA, cyclo([…] (SEQ ID NO.2). Upon administration of shorter peptide-variants of the present invention peptide every 4 weeks, a rapid decrease in the specific anti-beta 1-ECII antibody titer was equally observed within the first 6 months of therapy.

[3] = test system: immunized anti-β1-positive cardiomyopathic rats; assay: as above; format: in vivo, Lewis CrlBR rats; conditions: for regression of LV dilatation: therapy study; for regression of LV dilatation / biological efficiency (reversal of the cardiomyopathic phenotype): echocardiography; for progression of the disease monitored by echocardiography: within the 12 months of treatment, compared with untreated antibody positive animals, FIGS. 10 and 11; for biological efficiency (reversal of the cardiomyopathic phenotype): FIGS. 10d and 11d
[4] = test system: CD4+ T-cells; assay: T-cell recall assay with CD4+ T-cells from immunized animals (FIG. 19); format: cell-based, rat; conditions: T-cells from prophylactically or therapeutically treated immunized animals; peptide 10 μg/ml, FP 1.0 or 0.1 μg/mL
Description: “Cont.” means the respective not immunized control animals. The assays were carried out according to Schmidt J. et al. (2003) J Neuroimmunol. 140, 143-152. In brief, to purify CD4+ T-cells from the splenic cell preparations, B-cells and CD8+ T-cells were depleted by commercially available magnetic beads (MACS®), yielding a purity of CD4+ cells >85%. 1×10^5 CD4+ of the purified T-cells were then co-incubated in 96-well plates with 1×10^6 irradiated thymic antigen presenting cells (prepared from a younger rat). Reagents added in the different assays (conditions) were: 10 μg/ml glutathion-S-transferase (GST), 2 μg/ml Concanavalin A (ConA, positive control), 10 μg/ml 25AA-ECII peptide (Pept.25AA), and GST/beta1-ECII fusion protein (FP) at a concentration of 1.0 and 0.1 μg/ml, respectively. The measured T-cell reactivities were normalized to the respective T-cell reactivities obtained with 10 μg/ml purified protein derivative (PPD) carried out in parallel under each condition. After 48 hours of incubation, 50% of the supernatants were removed and replaced by fresh medium. The cells were then pulsed with 1.25 μCi/well [^3H]-thymidine and further incubated for 16 hours before the cells were harvested, and the DNA-incorporated radioactivity was measured using a beta-plate.

[5] = test system: rats immunized against the second β1-receptor loop (β1-ECII); conditions: rat, in vivo

Compound | impact on heart rate and blood pressure ([1]; FIG. 12 and FIG. 13, examples 3 and 4 (prevention and therapy study)) | heart rate ([1]; prophylactic treatment, FIGS. 5 and 12) | circulating specific anti-β1-ECII antibody titer [2] | cardiac β1-receptor density (down-/upregulation) ([3]; FIGS. 17 and 18 (prevention and therapy study)) | regression of LV dilatation [3] | progression of the disease monitored by echocardiography [3] | biological efficiency (reversal of the cardiomyopathic phenotype) [3] | specific anti-β1-ECII antibody-titer ([1]; 1 mg/kg s.c. or i.v. every 4 weeks, prophylactic, FIG. 4) | immune response upon antigen boost every 4 weeks ([1]; from the fifth month on, FIG. 4) | stimulation and proliferation of CD4+ T-cells [4] | heart rate [5]
CC(C)NCC(O)COc1ccc(COCCOC(C)C)cc1 (stereo not drawn) [bisoprolol, reference compound] | significantly reduced both heart rate and blood pressure | significant reduction in heart rate | had even higher beta1-antibody titers | β1-receptor upregulation | could not be reversed completely | no progression |  |  |  |  | 
cyclo(Ala-Asp-Glu-Ala-Arg-Arg-Cys-Tyr-Asn-Asp-Pro-Lys-Cys-Cys-Asp-Phe-Val-Gln) (cyclo(ADEARRCYNDPKCCDFVQ); not fully specified; printed as cyclo(Ala-Asp-Glu-Ala-Arg-Arg-Cys-Tyr-Asn-Asp-Pro-Lys-Cys-Cys-Asp-Phe-Val-Gln); cysteine pairing not given here) [ECII-18AA] |  |  | reduced by about a same extent |  | significant regression of LV dilatation |  | reversal of the cardiomyopathic phenotype |  |  |  | 
cyclo(Ala-Arg-Ala-Glu-Ser-Asp-Glu-Ala-Arg-Arg-Cys-Tyr-Asn-Asp-Pro-Lys-Cys-Cys-Asp-Phe-Val-Thr-Asn-Arg-Gln) (cyclo(ARAESDEARRCYNDPKCCDFVTNRQ); not fully specified; printed as cyclo(Ala-Arg-Ala-Glu-Ser-Asp-Glu-Ala-Arg-Arg-Cys-Tyr-Asn-Asp-Pro-Lys-Cys-Cys-Asp-Phe-Val-Thr-Asn-Arg-Gln); cysteine pairing not given here) [peptide Ic] |  |  | surprisingly rapid decrease; also recorded: reduced by about a same extent |  | significant regression of LV dilatation | no progression | reversal of the cardiomyopathic phenotype | prevented a further increase of the specific anti-β1-ECII antibody-titer with the titer even continuously declining | no more immune response | neither treatment group resulted in a significant stimulation | did neither decrease heart rate
cyclo(Ala-Arg-Arg-Cys-Tyr-Asn-Asp-Pro-Lys-Cys-Cys-Asp-Phe-Val-Tyr-Gln) (cyclo(ARRCYNDPKCCDFVYQ); not fully specified; printed as cyclo(Ala-Arg-Arg-Cys-Tyr-Asn-Asp-Pro-Lys-Cys-Cys-Asp-Phe-Val-Tyr-Gln); cysteine pairing not given here) [ECII-16AA] |  |  | remain stable instead of decreasing |  | obviously being less effective | at least the progression of the disease was stopped or stabilized | ambiguous results in 2 treated rats with one animal having complete reversal of the cardiomyopathic phenotype, the other animal progressive LV dilatation and dysfunction |  |  |  | 
